# Data as given in the OPERA property sets (Mansouri et al. 2018).
# Conditions: not given
SMILES,melting point [°C],boiling point [°C],log10 vapour pressure (mmHg),log10 Koc (L/kg),ready biodegradability,log10 Koa,log10 Henry constant (atm·m³/mol),log10 biodegradation half-life (days)
CCCCCCOc1ccc(O)cc1,46,–,–,–,–,–,–,–
C/C=C(/C)c1ccccc1,–,195,–,–,–,–,–,–
CCS(=O)(=O)CC,73.5,248,–,–,–,–,–,–
CC(=O)O[C@@H]1CC2CCC1(C)C2(C)C (stereo partly specified),29,221,-0.642,–,–,–,–,–
COC(=O)c1ccc(C(F)(F)F)nc1S(=O)(=O)[N]([Na])C(=O)Nc1nc(OC)cc(OC)n1,–,–,–,1.46,–,–,–,–
CCCOc1ccc([N+](=O)[O-])cc1N,49,–,–,–,–,–,–,–
Clc1ccc(Oc2c(Cl)cccc2Cl)cc1,–,–,-3.66,–,–,–,–,–
Cc1cn(C)c2ccccc12,142,258,–,–,–,–,–,–
C[Si](Cn1cncn1)(c1ccc(F)cc1)c1ccc(F)cc1,54,–,–,3.22,–,–,–,–
CCc1cccc(C)n1,–,160,–,–,–,–,–,–
OC(c1ccccc1)(c1ccccc1)c1ccccc1,164,380,–,–,–,–,–,–
Cc1ccc2c(c1)CCC(C)C2 (stereo unspecified),20,240,–,–,–,–,–,–
C#CC1(O)CCCC1,27,158,–,–,–,–,–,–
C#CCC(C)C,-105,61.2,–,–,–,–,–,–
NC(=O)NO,141,–,–,–,–,–,–,–
CCOC(=O)c1ccc([N+](=O)[O-])cc1,57,186,–,2.48,–,–,–,–
CCSc1ccc2c(c1)N(CCCN1CCN(C)CC1)c1ccccc1S2,63,–,–,–,–,–,–,–
CC(C)(C)c1cccc2ccccc12,-11.3,279,–,–,–,–,–,–
C=C(C)C(=O)OC(C)C,–,125,–,–,–,–,–,–
CCCCCCCCCCCC[N+](C)(C)[O-],132,–,–,–,readily biodegradable,–,–,–
N#Cc1c2ccccc2cc2ccccc12,175,–,–,–,–,–,–,–
CCCc1ccc2c(c1)OCO2,–,228,–,–,–,–,–,–
CC[N+](C)(C)C(C)CC(c1ccccc1)c1ccccc1.[Br-] (stereo unspecified),204,–,–,–,–,–,–,–
CCC(C)C(CC)CC (stereo unspecified),–,140,–,–,–,–,–,–
CC(=O)OCCCCl,–,164,–,–,–,–,–,–

SMILES,melting point [°C],boiling point [°C],log10 vapour pressure (mmHg),log10 Koc (L/kg),ready biodegradability,log10 Koa,log10 Henry constant (atm·m³/mol),log10 biodegradation half-life (days)
C/C=C/CCCCCCCC,-57.4,194,–,–,–,–,–,–
COc1cc(Cl)c(OC)cc1Cl,134,268,-2.52,3.1,–,–,–,–
C=CCCCCCC=C,–,142,–,–,–,–,–,–
O=C(O)C=Cc1ccc(Br)cc1,263,–,–,–,–,–,–,–
Fc1cccc(F)c1,-69,82.6,1.92,–,–,–,–,–
Nc1ccc(N)c2c1C(=O)c1c(N)ccc(N)c1C2=O,285,–,–,–,–,–,–,–
C=C1CC[C@H](O)C/C1=C/C=C1\CCC[C@]2(C)[C@@H]([C@H](C)/C=C/[C@H](C)C(C)C)CC[C@@H]12,116,–,–,–,–,–,–,–
C[Si](C)(C)CCl,–,98.5,–,–,–,–,–,–
CCOC(=O)c1cccc(N)c1,–,294,–,–,–,–,–,–
C#CCCCCCCC,-50,151,0.797,–,–,–,–,–
CCCC(CC)(CC)CC,–,166,–,–,–,–,–,–
c1ccc2oncc2c1,–,215,–,–,–,–,–,–
O=Cc1ccc2c(c1)OCO2,37,263,-2,–,readily biodegradable,–,–,–
ClC(Cl)I,–,132,–,–,–,–,–,–
N#CCC(N)=C(C#N)C#N,172,–,–,–,–,–,–,–
CN(C)CCC#N,–,173,–,–,–,–,–,–
CC(O)C(O)CO (stereo unspecified),–,–,-2.47,–,–,–,–,–
O=S1(=O)CCCC1,27.6,285,–,–,not readily biodegradable,–,–,–
CN1C(=O)CC(c2ccccc2)C1=O (stereo unspecified),72,–,–,–,–,–,–,–
CC(F)(Cl)Cl,-104,32,2.78,–,–,–,–,–
O=C(c1ccccc1)C1CC1,-7.9,–,–,–,–,–,–,–
CC(=O)C=Cc1ccccc1,41.8,262,-1.91,–,not readily biodegradable,–,–,–
CCC(CC)(CO)CO,61.5,240,–,–,–,–,–,–
Fc1cc(F)c(F)cc1F,4.5,90.2,1.75,–,–,–,–,–
CCCC(C)=C(C)C,-115,122,1.26,–,–,–,–,–

SMILES,melting point [°C],boiling point [°C],log10 vapour pressure (mmHg),log10 Koc (L/kg),ready biodegradability,log10 Koa,log10 Henry constant (atm·m³/mol),log10 biodegradation half-life (days)
Clc1ccc2c(c1)Oc1cc(Cl)c(Cl)cc1O2,162,–,-7.05,–,–,9.14,–,–
Clc1nc(Cl)nc(Nc2ccccc2Cl)n1,160,–,-8.21,3,–,–,–,–
C=C,-169,-104,4.72,–,–,0.28,-0.642,–
O=C(NCCO[N+](=O)[O-])c1cccnc1,92.5,–,–,–,–,–,–,–
O=C(O)CCCCCc1ccccc1,23,–,–,–,–,–,–,–
COc1ccc(C(N)=O)cc1OC,164,–,–,–,–,–,–,–
C=CCCCC(=O)O,-37,203,–,–,–,–,–,–
NC(=O)Nc1cccc(C(F)(F)F)c1,–,–,–,1.98,–,–,–,–
Clc1ccc(C(c2ccc(Cl)cc2)C(Cl)Cl)cc1,110,350,-5.87,4.21,–,10.1,-5.18,–
CSCCSC,–,183,–,–,–,–,–,–
COc1ccc(C[C@H](N)C(=O)N[C@H]2[C@@H](O)[C@H](n3cnc4c(N(C)C)ncnc43)O[C@@H]2CO)cc1,176,–,–,–,–,–,–,–
Clc1cc2c(oc3c(Cl)c(Cl)c(Cl)cc32)c(Cl)c1Cl,240,–,–,–,–,10.9,–,–
CCCCCCCC1CCCC(=O)O1 (stereo unspecified),-12,–,–,–,–,–,–,–
CNC(N)=S,120,–,–,–,–,–,–,–
CC(C=O)=Cc1ccccc1,–,252,-1.82,–,–,–,–,–
CC(=O)c1ccc(O)cc1C,128,313,–,–,–,–,–,–
CCn1cc(C(=O)O)c(=O)c2ccc(-c3ccncc3)cc21,290,–,–,–,–,–,–,–
O=c1oc2ccccc2c(O)c1C1CC(c2ccc(-c3ccc(Br)cc3)cc2)Cc2ccccc21 (stereo unspecified),230,–,–,–,–,–,–,–
O=[N+]([O-])c1ccc(N=Nc2ccc(O)cc2)cc1,–,–,-9.52,–,–,–,–,–
CCCCCCCCCS,-20.1,220,-0.881,–,–,–,–,–
CC(C)(C)C(=O)Cl,–,107,–,–,–,–,–,–
CCCCCCCCCC(N)=O,108,–,–,–,–,–,–,–
C=CC[C@]1(O)CC[C@H]2[C@@H]3CCC4=CC(=O)CCC4=C3C=C[C@@]21C,120,–,–,–,–,–,–,–
CC(C)(C)CC(=O)O,6.5,190,–,–,–,–,–,–
OCC1O[C@@H](Oc2ccccc2)[C@H](O)[C@@H](O)[C@H]1O (stereo partly specified),166,–,–,–,–,–,–,–

SMILES,melting point [°C],boiling point [°C],log10 vapour pressure (mmHg),log10 Koc (L/kg),ready biodegradability,log10 Koa,log10 Henry constant (atm·m³/mol),log10 biodegradation half-life (days)
Cc1ccc(C)c([N+](=O)[O-])c1,-25,240,–,–,–,–,–,–
COc1cc(OC)nc(NC(=O)NS(=O)(=O)c2c(-c3nnn(C)n3)cnn2C)n1,170,–,-10.5,1.89,–,–,–,–
N#CCCCCCCCCCCC(=O)O,–,–,–,–,readily biodegradable,–,–,–
Nc1ccc2ccccc2c1N=Nc1ccccc1,103,–,–,–,–,–,–,–
FC(F)(F)C(F)(F)N(C(F)(F)C(F)(F)F)C(F)(F)C(F)(F)F,-110,70.3,–,–,–,–,–,–
O=CC(=O)O,–,–,–,–,readily biodegradable,–,–,–
CNO,87.5,–,0.222,–,–,–,–,–
N=C(N)NCCC[C@H](N)C(=O)O,–,–,–,–,readily biodegradable,–,–,–
Cc1cc(C)cc(C(C)(C)C)c1,-18,207,–,–,–,–,–,–
CP(=O)(O)CCC(N)C(=O)[O-].[NH4+] (stereo unspecified),215,–,–,–,–,–,–,–
Clc1ccc2ccccc2n1,38,266,–,–,–,–,–,–
ClCc1ccccc1Cl,-17,217,–,–,not readily biodegradable,–,–,–
CCCc1cccc2ccccc12,-8.6,274,–,–,–,–,–,–
O=C(Cl)c1ccccc1F,4,206,–,–,–,–,–,–
C1C2CC3CC1CC(C2)C3,205,–,–,–,–,–,–,3
CCC(C)c1ccc(OCC2CO2)cc1 (stereo unspecified),–,–,–,–,not readily biodegradable,–,–,–
Cc1ccccc1NC(N)=S,162,–,–,–,–,–,–,–
CCC1Nc2cc(Cl)c(S(N)(=O)=O)cc2S(=O)(=O)N1 (stereo unspecified),270,–,–,–,–,–,–,–
Clc1cncc(Cl)c1,66,–,–,–,–,–,–,–
CF,-142,-78.4,3.46,–,–,–,–,–
NC(=O)CF,108,–,–,–,–,–,–,–
FC(Cl)(Cl)CCl,-140,88,–,–,–,–,–,–
O=C(O)c1ccc2c(c1)C(=O)OC2=O,162,390,-5.01,–,readily biodegradable,–,–,–
CC(C)CS,–,88.5,1.84,–,–,–,–,–
FC(F)C(F)(F)CBr,–,74,–,–,–,–,–,–

# Same assay, conditions: fish
SMILES,log10 BCF,log10 biotransformation half-life (days)
CCOP(=O)(OCC)Oc1cc(C)nc(C(C)C)n1,-0.35,–
O=S1(=O)CCCC1,0.85,–
Brc1cc(Br)c(Oc2c(Br)cc(Br)c(Br)c2Br)c(Br)c1Br,5.3,–
Clc1ccc(C(c2ccc(Cl)cc2)C(Cl)Cl)cc1,–,2.44
Clc1cc2c(oc3c(Cl)c(Cl)c(Cl)cc32)c(Cl)c1Cl,3.98,1.12
